Like-named read-outs stand apart in the source and are kept apart here.
Assays:
EED = EED (Homo sapiens, UniProt O75530); test: EED TR-FRET Binding Assay (modified LanthaScreen competition assay)
Method in brief: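 Competition binding in a modified LanthaScreen format, in 20 mM Tris-HCl pH 7.5, 200 mM NaCl, 0.01% Tween-20, 10 uM DTT and 0.05% BSA. Reactions ran 1 hour at 25° C before TR-FRET detection.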

Pfeiffer cells = test: CTG cell viability assay (CellTiter-Glo); format: cell-based; conditions: Homo sapiens, 240 h
Experimental: 1,000 cells were plated into each well of 96-well Corning CellBing cell culture plates and incubated overnight at 37° C. in a humidified CO2 incubator. […] The cell culture plates were then incubated for 10 more days. CTG cell viability assay was performed on the cell culture samples by using CellTiter-Glo® Luminescent Cell Viability Assay Kit (Promega).

[1] = system: H3K27me3 in OCILY19 cells; test: H3K27me3 AlphaLISA assay in OCILY19 cells; format: cell-based; conditions: Homo sapiens, OCI-LY19, 144 h, 6 days with compound, read-out: OCILY-19 IC50
Experimental: (§1) 5,000 cells were plated into each well of 96-well Corning CellBing cell culture plates and incubated overnight at 37° C. in a humidified CO2 incubator. […] The cell culture plates were then incubated for 6 more days. H3K27me3 AlphaLISA assay was performed on the cell culture samples by using AlphaLISAR® H3K27me3 Cellular Detection Kit (PerkinElmer) and 96-well white half-area plates (PerkinElmer).

H3K27me3 in G401 cells = test: H3K27me3 AlphaLISA assay in G401 cells; format: cell-based; conditions: Homo sapiens, G-401, 144 h, 6 days with compound
Experimental: as §1, with “G401 cells (ATCC catalog # CRL-1441) were maintained in McCoy's 5a medium (ATCC) supplemented with 10% heat-inactivated FBS (HyClone) at 37° C. in a humidified CO2 incubator. OCILY19 cells (DSMZ catalog #ACC 528) were maintained in IMDM (Invitrogen) supplemented with 10% human serum (Sigma) at 37° C. in a humidified CO2 incubator. 5,000” for “5,000”

[2] = Pfeiffer cells, 10 days with compound, CellTiter-Glo, read-out: Cell Proliferation IC50

Chain of EED (O75530 whole entry): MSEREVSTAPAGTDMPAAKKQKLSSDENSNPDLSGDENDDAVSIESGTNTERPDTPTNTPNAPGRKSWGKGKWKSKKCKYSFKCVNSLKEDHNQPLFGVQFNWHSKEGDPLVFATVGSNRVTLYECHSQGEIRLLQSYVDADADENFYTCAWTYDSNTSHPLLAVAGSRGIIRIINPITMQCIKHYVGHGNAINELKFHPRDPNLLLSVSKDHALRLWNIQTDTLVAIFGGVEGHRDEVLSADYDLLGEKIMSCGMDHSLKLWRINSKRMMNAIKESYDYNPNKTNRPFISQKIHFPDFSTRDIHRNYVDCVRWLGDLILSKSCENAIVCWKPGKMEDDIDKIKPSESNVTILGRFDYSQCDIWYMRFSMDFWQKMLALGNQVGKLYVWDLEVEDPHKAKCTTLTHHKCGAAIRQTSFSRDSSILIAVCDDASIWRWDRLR

Compound | IC50 (EED) [nM] | IC50 [1] [nM] | IC50 (H3K27me3 in G401 cells) [nM] | IC50 (Pfeiffer cells; [2]) [µM] | IC50 (Pfeiffer cells; Pfeiffer, read-out: Cell Proliferation IC50 (uM)) [µM]
CN(C)C(=O)c1ccc2c([C@H]3CN(C4CCc5cccc(F)c54)C[C@@H]3N(C)C)cn(C)c2c1 (mixture of isomers) [Example 87, rac-3-[(3S,4R)-4-(dimethylamino)-1-(7-fluoro-2,3-dihydro-1H-inden-1-yl)pyrrolidin-3-yl]-N,N,1-trimethyl-1H-indole-6-carboxamide] | 0.481 | 178 | 62.6 | 0.0941 | –
CN(C)[C@H]1CN(C2CCc3cccc(F)c32)C[C@@H]1c1cn(C)c2c(C(=O)N3CC(F)C3)cccc12 (mixture of isomers) [Example 103, rac-{3-[(3S,4R)-4-(dimethylamino)-1-(7-fluoro-2,3-dihydro-1H-inden-1-yl)pyrrolidin-3-yl]-1-methyl-1H-indol-7-yl}(3-fluoroazetidin-1-yl)methanone] | 1.01 | 183 | 30.6 | 0.0648 | –
CN(C)[C@@H]1CN(C2CCc3cccc(F)c32)C[C@H]1c1ccc(-c2cnn(CC(N)=O)c2)nc1 (mixture of isomers) [Example 158, rac-2-(4-{5-[(3R,4S)-4-(dimethylamino)-1-(7-fluoro-2,3-dihydro-1H-inden-1-yl)pyrrolidin-3-yl]pyridin-2-yl}-1H-pyrazol-1-yl)acetamide] | 1.37 | 87.2 | 127 | 0.385 | –
CNC(=O)Cn1cc(-c2ccc([C@@H]3CN(C4CCc5cccc(F)c54)C[C@H]3N(C)C)cn2)cn1 (mixture of isomers) [Example 161, rac-2-(4-{5-[(3R,4S)-4-(dimethylamino)-1-(7-fluoro-2,3-dihydro-1H-inden-1-yl)pyrrolidin-3-yl]pyridin-2-yl}-1H-pyrazol-1-yl)-N-methylacetamide] | 0.669 | 571 | 151 | 0.293 | –
CN(C)C(=O)N1CCN(c2ccc([C@H]3CN(C4CCc5cccc(F)c54)C[C@@H]3N(C)C)cc2)CC1 (mixture of isomers) [Example 63, rac-4-{4-[(3S,4R)-4-(dimethylamino)-1-(7-fluoro-2,3-dihydro-1H-inden-1-yl)pyrrolidin-3-yl]phenyl}-N,N-dimethylpiperazine-1-carboxamide] | 1.47 | 191 | 55.6 | 0.0727 | –
CN(C)[C@H]1CN(C2CCc3cccc(F)c32)C[C@@H]1C1CCN(c2ccc(C(N)=O)nn2)CC1 (mixture of isomers) [Example 165, rac-6-{4-[(3S,4R)-4-(dimethylamino)-1-(7-fluoro-2,3-dihydro-1H-inden-1-yl)pyrrolidin-3-yl]piperidin-1-yl}pyridazine-3-carboxamide] | 0.48 | 272 | 55.9 | 0.286 | –
COc1ccc([C@@H]2CN(C3CCc4cccc(F)c43)C[C@H]2N(C)C)cc1OC (mixture of isomers) [Example 23, rac-(3S,4R)-4-(3,4-dimethoxyphenyl)-1-(7-fluoro-2,3-dihydro-1H-inden-1-yl)-N,N-dimethylpyrrolidin-3-amine] | 2.72 | 393 | 198 | 0.921 | –
CCS(=O)(=O)N1CCN(c2ccc([C@H]3CN(C4CCc5cccc(F)c54)C[C@@H]3N(C)C)cc2)CC1 (mixture of isomers) [Example 49, rac-(3R,4S)-4-{4-[4-(ethanesulfonyl)piperazin-1-yl]phenyl}-1-(7-fluoro-2,3-dihydro-1H-inden-1-yl)-N,N-dimethylpyrrolidin-3-amine] | 0.739 | 200 | 182 | 0.194 | –
CN(C)[C@H]1CN(C2CCc3cccc(F)c32)C[C@@H]1c1cn(C)c2c(C(=O)N3CCN(S(=O)(=O)N4CC(C#N)C4)CC3)cccc12 (stereo partly drawn) [Example 133, 1-(4-{3-[(3S,4R)-4-(dimethylamino)-1-(7-fluoro-2,3-dihydro-1H-inden-1-yl)pyrrolidin-3-yl]-1-methyl-1H-indole-7-carbonyl}piperazine-1-sulfonyl)azetidine-3-carbonitrile] | 1.45 | 206 | 61.5 | 0.133 | –
CC(=O)N1CCN(c2ccc([C@H]3CN([C@H]4CCc5cccc(F)c54)C[C@@H]3N(C)C)cc2)CC1 [Example 45, 1-[4-(4-{(3S,4R)-4-(dimethylamino)-1-[(1S)-7-fluoro-2,3-dihydro-1H-inden-1-yl]pyrrolidin-3-yl}phenyl)piperazin-1-yl]ethan-1-one] | 0.303 | 43.3 | 31.1 | – | 0.0284
CN(C)[C@H]1CN(C2CCc3cccc(F)c32)C[C@@H]1c1ccc(-c2cnn(CC(N)=O)c2)cc1 (mixture of isomers) [Example 71, rac-2-(4-{4-[(3S,4R)-4-(dimethylamino)-1-(7-fluoro-2,3-dihydro-1H-inden-1-yl)pyrrolidin-3-yl]phenyl}-1H-pyrazol-1-yl)acetamide] | 1.13 | 155 | 52.1 | 0.108 | –

The remaining molecules from weak to strong by IC50 (EED), led by results:

IC50 (EED) [nM] | IC50 [1] [nM] | IC50 (H3K27me3 in G401 cells) [nM] | Compound | IC50 (Pfeiffer cells; [2]) [µM] | IC50 (Pfeiffer cells; Pfeiffer, read-out: Cell Proliferation IC50 (uM)) [µM]
12.5 | 597 | 725 | CN(C)[C@@H]1CN([C@@H]2CCc3cccc(F)c32)C[C@H]1c1ccc(C#N)cc1 (racemic) [Example 19, rac-4-{(3R,4S)-4-(dimethylamino)-1-[(1R)-7-fluoro-2,3-dihydro-1H-inden-1-yl]pyrrolidin-3-yl}benzonitrile] | 0.654 | –
6.08 | 3120 | 3190 | CN(C)[C@@H]1CN(C2CCc3cccc(F)c32)C[C@H]1c1ccc(Cl)cc1 (mixture of isomers) [Example 7, rac-(3S,4R)-4-(4-chlorophenyl)-1-(7-fluoro-2,3-dihydro-1H-inden-1-yl)-N,N-dimethylpyrrolidin-3-amine] | 2.34 | –
2.05 | 617 | 332 | Cc1n[nH]c(C)c1S(=O)(=O)N1CCN(C(=O)c2cccc3c([C@H]4CN(C5CCc6cccc(F)c65)C[C@@H]4N(C)C)cn(C)c23)CC1 (mixture of isomers) [Example 136, rac-{3-[(3S,4R)-4-(dimethylamino)-1-(7-fluoro-2,3-dihydro-1H-inden-1-yl)pyrrolidin-3-yl]-1-methyl-1H-indol-7-yl}[4-(3,5-dimethyl-1H-pyrazole-4-sulfonyl)piperazin-1-yl]methanone] | 1.52 | –
1.98 | 493 | 372 | CNC(=O)c1ccc(N2CCC([C@H]3CN(C4CCc5cccc(F)c54)C[C@@H]3N(C)C)CC2)nc1 (mixture of isomers) [Example 154, rac-6-{4-[(3S,4R)-4-(dimethylamino)-1-(7-fluoro-2,3-dihydro-1H-inden-1-yl)pyrrolidin-3-yl]piperidin-1-yl}-N-methylpyridine-3-carboxamide] | 0.455 | –
1.44 | 162 | 63.3 | CN(C)[C@H]1CN(C2CCc3cccc(F)c32)C[C@@H]1c1cn(C)c2c(C(=O)N3CCN(S(=O)(=O)N4CCC4)CC3)cccc12 (stereo partly drawn) [Example 132, [4-(azetidine-1-sulfonyl)piperazin-1-yl]{3-[(3S,4R)-4-(dimethylamino)-1-(7-fluoro-2,3-dihydro-1H-inden-1-yl)pyrrolidin-3-yl]-1-methyl-1H-indol-7-yl}methanone] | 0.0943 | –
1.2 | 446 | 70.2 | CN(C)[C@H]1CN(C2CCc3cccc(F)c32)C[C@@H]1c1cn(C)c2cc(C(=O)N3CC[C@@H](O)C3)ccc12 (mixture of isomers) [Example 112, rac-{3-[(3S,4R)-4-(dimethylamino)-1-(7-fluoro-2,3-dihydro-1H-inden-1-yl)pyrrolidin-3-yl]-1-methyl-1H-indol-6-yl}[(3R)-3-hydroxypyrrolidin-1-yl]methanone] | 0.133 | –
0.906 | 3170 | 2300 | CN(C)[C@@H]1CN(C2CCc3cccc(F)c32)C[C@H]1c1ccc(N2CCN(c3ccccn3)CC2)cc1 (mixture of isomers) [Example 75, rac-(3S,4R)-1-(7-fluoro-2,3-dihydro-1H-inden-1-yl)-N,N-dimethyl-4-{4-[4-(pyridin-2-yl)piperazin-1-yl]phenyl}pyrrolidin-3-amine] | 1.76 | –
0.739 | 102 | 186 | CN1CCN(c2cccc3c([C@H]4CN(C5CCc6cccc(F)c65)C[C@@H]4N(C)C)cn(C)c23)CC1=O (mixture of isomers) [Example 129, rac-4-{3-[(3S,4R)-4-(dimethylamino)-1-(7-fluoro-2,3-dihydro-1H-inden-1-yl)pyrrolidin-3-yl]-1-methyl-1H-indol-7-yl}-1-methylpiperazin-2-one] | 0.0981 | –
